Measured values: patent publication US10854312B2, “Selective peptide antagonists” (BIONIZ, LLC, priority 2013, dated 2020)
Entries after “also recorded” stand apart in the source; their conditions may differ. No end group written: not given here.

Columns and labels:
HAM/TSP T cells = assay: Spontaneous ex vivo proliferation of HAM/TSP patient lymphocytes (thymidine incorporation); type: cell-based, human; conditions: 5 days culture without exogenous cytokines; BNZ132-1 1 μM or 3 and 0.3 μM; mABs 5 mg/ml each
Procedure: FIG. 7A, and FIG. 7B present effective inhibition of a combined function of target γc-cytokines by BNZ132-1. […] Human Peripheral T cells were prepared as described in the methodology section. Four hundred thousand cells (in 200 μl culture) were incubated with the cytokines and BNZ132-1 at the indicated concentrations for 24 h, and cellular proliferation was determined by the […] using the WST-1 reagent (Clontech). The Y-axis represents the OD450 values. The p values; 1 nM cytokine combination-No inhibition vs. anti-IL-2; 0.33, No inhibition vs. anti-IL-15; 0.13, No inhibition vs. anti IL-2+IL-15; 0.003. No inhibition vs. BNZ132-1; 0.021. 0.1 nM cytokine combination-No inhibition vs. anti-IL-2; 0.046, No inhibition vs. anti-IL-15; 0.057, No inhibition vs. anti IL-2+IL-15; 0.001, No inhibition vs. anti IL-2+15; 0.001, No inhibition vs.BNZ132-1; 0.001. The assay was performed in triplicate. […] Peripheral blood mononuclear cells were purified from the blood of a HAM-TSP patient and set up for a spontaneous proliferation assay as previously described36. The cellular proliferation was measured by the thymidine incorporation assay. The Y-axis represents the cpm values. Doses are on the X-axis; BNZ132-1, 3 and 0.3 μM. Antibodies against IL-2 or IL-15 (1 and 10 μg ml-1 of each, R & D Systems). […]

mouse IL-4 signal = assay: Western blot of phosphorylation downstream of IL-4 in PT-18 cells; type: cell-based; conditions: 1 nM mouse IL-4, excess dose of BNZ132-1, 15 min
Procedure: PT-18 cells32 were fasted of IL-3 for 12 h prior to stimulation. Cells were stimulated with 1 nM mouse IL-4 or mouse IL-9 in the presence or absence of excess dose of BNZ132-1 ([…]) for 15 min and then cellular proteins were extracted. Phosphorylation of the indicated proteins was detected using phosphor-specific antibodies (Cell signaling), followed by ECL. IL-4 is the only γc-cytokine that induces the phosphorylation of STAT6. Note that only IL-4, but not IL-9, induced the tyrosine-phosphorylation of STAT6. […] Lanes: 1. no stimulation, 2. IL-4, 3. IL-4+BNZ132-1, 4. IL-9, 5. IL-9+BNZ132-1

mouse GM-CSF = mouse GM-CSF (Mus musculus, UniProt P01587); assay: PT-18β proliferation assay (3H-thymidine), non-γc cytokine GM-CSF; type: cell-based; conditions: 1 nM mouse GM-CSF, 15 μM BNZ132-1
Chain of mouse GM-CSF (P01587 18-141): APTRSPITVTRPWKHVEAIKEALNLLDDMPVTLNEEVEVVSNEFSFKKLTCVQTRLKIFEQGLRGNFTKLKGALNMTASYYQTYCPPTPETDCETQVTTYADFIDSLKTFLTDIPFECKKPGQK

**Q.** How did the “inhibition of spontaneous ex vivo proliferation of HAM/TSP T cells” value (HAM/TSP T cells) turn out when IKEFLQRFIHIVQSIINTS [BNZ132-1] was run?
**A.** as effective inhibition as combined anti-IL-2 and anti-IL-15 mABs; also recorded: Efficient inhibition

**Q.** And the “inhibition of IL-4 signal transduction (phosphorylation, STAT6)” value (mouse IL-4 signal)?
**A.** does not interfere; also recorded: not inhibited

**Q.** What about the “inhibition of GM-CSF-induced proliferation of PT-18β cells” value (mouse GM-CSF) of the same sequence?
**A.** did not inhibit; also recorded: no inhibition; also recorded: no inhibition of non-γc cytokines
